Measured values as given in publication PMC9166630, “SAR Probing of KX2-391 Provided Analogues With Juxtaposed Activity Profile Against Major Oncogenic Kinases” (Frontiers in Oncology, 2022).

Experiments:
Assay type in all cases: biochemical
CSK = molecular target: T1, CSK (Homo sapiens, UniProt P41240); assay: PamChip tyrosine kinase microarray, CSK; settings: 4e 0.1 µM, HL60 lysate
T1 construct: endogenous in cells; host or cells: HL60 lysate
Protocol: (§1) The changes in kinase activities induced by treatment with 4e were monitored within the HL60 cell lines using PamGene’s (Hertogenbosch, Netherlands) PamChip® peptide microarray profiler, which quantifies the activities of 144 tyrosine kinases (YK) ([29], [30]) (Figure 7). Results are provided as a log fold change (LFC) heatmap and Mean Kinase Statistic. From the LFC it is apparent that compound 4e, at a concentration of 0.1 µM, induced sizable changes to the activity of several kinases within the cell signaling YK profile (Figure 7A).
(§2) An Upstream Kinase tool was used to generate a putative list of kinases responsible for phosphorylating the phospho-sites on the PamChip (Figure 7B) ([31]). It is an interpretation and is highly dependent on the contents of the underlying phosphorylation databases. A Kinase Score was used for ranking kinases based on their significance and specificity in terms of the set of peptides used for the corresponding kinase. Kinase Statistics indicates the overall change of the peptide set that represents the kinase. Kinase statistics value <0 indicates lower kinase activity in the compound spiked lysate and vice versa ([32], [33]). Table 5 lists the 20 most changed kinases within treated HL60 cell lysates by 0.1 μM 4e, ranked according to their Kinase Score.
(§3) The compound 4e was spiked into HL60 cell lysate at different concentrations (0.001, 0.01, 0.1, 1, 10 and 50 μM). In addition, DMSO was also spiked in HL60 lysate at low concentration (2% v/v) as control. Samples were profiled on PamGene’s Tyrosine Kinase (PTK) arrays in technical replicates, covering a total of 196 phosphorylation sites. Frozen HL60 cultured cell pellet was sent to PamGene. At PamGene, cells were lysed using a lysis buffer and proteases inhibitors cocktail. Protein concentration was measured using standard Bradford assay as per PamGene SOPs. These lysates were further used for generating the PTK activity profiles. For spiking, 4e was received as powder form and dissolved in DMSO at PamGene facility followed by storing at -20°C in small aliquots. PamGene used its in-house bioinformatics toolbox in combination with other methods to generate hypotheses of signaling pathways.

purified bovine tubulin = assay: Tubulin polymerization assay (turbidimetric); settings: theoretical concentration 10 µM, OD 340 nm, 60 min
Protocol: The effect of compound 4e on tubulin polymerization was investigated using the cell-free assay which assesses the assembly of purified bovine tubulin by a turbidometric method (Figure 5). Tubulin polymerization results in increased turbidity, which is measured as an increase in the optical density (OD).
Figure 5 Tubulin polymerization assay for compound 4e at 10 µM compared to paclitaxel (10 µM) and KX2-391 (10 µM) as references, while DMSO (1% v/v) was used as a vehicle control. Purified bovine tubulin and GTP were mixed in a 96-well plate. The polymerization reaction was initiated by warming the solution from 4°C to 37°C. The effect on tubulin assembly was monitored by measuring the optical density (OD) at 340 nm every 30 seconds over 60 min period. The results represent the mean for three separate experiments.
The assembly of purified bovine tubulin was monitored using the Tubulin Polymerization Assay kit, BK006 (Cytoskeleton Inc., Denver, CO, USA). The assay was carried out in accordance with the manufacturer’s instructions in the assay kit manual using the standard assay conditions. The values reported represent the average values from two independent assays. […] Therefore, tubulin assembly was monitored turbidimetrically at 340 nm at 37°C in a Spectramax 340 PC spectrophotometer (Molecular Devices, Sunnyvale, CA, USA). The absorbance was measured at 30 s intervals for 60 min.

Tyro3/Sky = molecular target: T2, Tyro3/Sky (Homo sapiens, UniProt Q06418); assay: PamChip tyrosine kinase microarray, Tyro3/Sky; settings: 4e 0.1 µM, HL60 lysate
T2 construct: endogenous in cells; host or cells: HL60 lysate
T2 sequence (Q06418 41-890): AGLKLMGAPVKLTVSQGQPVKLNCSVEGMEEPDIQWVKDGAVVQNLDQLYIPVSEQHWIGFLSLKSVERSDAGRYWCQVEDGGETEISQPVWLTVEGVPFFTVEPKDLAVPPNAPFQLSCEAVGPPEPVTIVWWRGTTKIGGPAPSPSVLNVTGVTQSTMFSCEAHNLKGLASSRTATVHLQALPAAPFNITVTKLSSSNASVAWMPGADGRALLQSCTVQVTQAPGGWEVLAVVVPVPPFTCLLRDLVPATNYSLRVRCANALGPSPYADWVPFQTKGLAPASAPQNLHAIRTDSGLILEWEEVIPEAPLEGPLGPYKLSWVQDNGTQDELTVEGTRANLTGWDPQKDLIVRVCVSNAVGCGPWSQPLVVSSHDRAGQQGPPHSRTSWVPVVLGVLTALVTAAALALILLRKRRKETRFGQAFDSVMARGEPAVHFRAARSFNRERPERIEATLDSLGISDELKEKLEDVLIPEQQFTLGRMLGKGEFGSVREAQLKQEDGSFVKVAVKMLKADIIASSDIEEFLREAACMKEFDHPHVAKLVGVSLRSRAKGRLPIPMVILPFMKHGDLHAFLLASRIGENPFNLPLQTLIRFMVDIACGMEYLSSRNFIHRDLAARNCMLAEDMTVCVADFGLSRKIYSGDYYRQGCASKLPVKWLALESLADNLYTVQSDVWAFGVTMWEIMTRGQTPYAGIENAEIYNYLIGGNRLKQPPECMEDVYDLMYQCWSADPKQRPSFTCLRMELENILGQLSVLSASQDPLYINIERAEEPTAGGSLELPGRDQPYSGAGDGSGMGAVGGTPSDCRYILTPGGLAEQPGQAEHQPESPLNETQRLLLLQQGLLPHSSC
Protocol: as §1, §2, §3

Ret = molecular target: T3, Ret (Homo sapiens, UniProt P07949); assay: PamChip tyrosine kinase microarray, Ret; settings: 4e 0.1 µM, HL60 lysate
T3 construct: endogenous in cells; host or cells: HL60 lysate
Protocol: as §1, §2, §3

T1 sequence (P41240 whole entry): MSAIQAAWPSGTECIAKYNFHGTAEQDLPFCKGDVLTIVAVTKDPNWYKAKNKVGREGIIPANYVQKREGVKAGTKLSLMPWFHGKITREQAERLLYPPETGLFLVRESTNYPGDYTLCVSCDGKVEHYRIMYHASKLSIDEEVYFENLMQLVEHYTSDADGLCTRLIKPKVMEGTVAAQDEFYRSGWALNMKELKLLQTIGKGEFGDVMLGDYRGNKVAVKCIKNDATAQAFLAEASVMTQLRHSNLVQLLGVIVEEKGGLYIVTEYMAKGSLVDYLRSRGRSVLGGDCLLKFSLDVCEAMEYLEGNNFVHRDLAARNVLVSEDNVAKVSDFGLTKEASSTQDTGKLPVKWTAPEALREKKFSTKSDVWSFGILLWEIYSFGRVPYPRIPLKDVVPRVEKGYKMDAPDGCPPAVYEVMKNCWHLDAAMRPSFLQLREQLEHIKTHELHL
T3 sequence (P07949 29-1114): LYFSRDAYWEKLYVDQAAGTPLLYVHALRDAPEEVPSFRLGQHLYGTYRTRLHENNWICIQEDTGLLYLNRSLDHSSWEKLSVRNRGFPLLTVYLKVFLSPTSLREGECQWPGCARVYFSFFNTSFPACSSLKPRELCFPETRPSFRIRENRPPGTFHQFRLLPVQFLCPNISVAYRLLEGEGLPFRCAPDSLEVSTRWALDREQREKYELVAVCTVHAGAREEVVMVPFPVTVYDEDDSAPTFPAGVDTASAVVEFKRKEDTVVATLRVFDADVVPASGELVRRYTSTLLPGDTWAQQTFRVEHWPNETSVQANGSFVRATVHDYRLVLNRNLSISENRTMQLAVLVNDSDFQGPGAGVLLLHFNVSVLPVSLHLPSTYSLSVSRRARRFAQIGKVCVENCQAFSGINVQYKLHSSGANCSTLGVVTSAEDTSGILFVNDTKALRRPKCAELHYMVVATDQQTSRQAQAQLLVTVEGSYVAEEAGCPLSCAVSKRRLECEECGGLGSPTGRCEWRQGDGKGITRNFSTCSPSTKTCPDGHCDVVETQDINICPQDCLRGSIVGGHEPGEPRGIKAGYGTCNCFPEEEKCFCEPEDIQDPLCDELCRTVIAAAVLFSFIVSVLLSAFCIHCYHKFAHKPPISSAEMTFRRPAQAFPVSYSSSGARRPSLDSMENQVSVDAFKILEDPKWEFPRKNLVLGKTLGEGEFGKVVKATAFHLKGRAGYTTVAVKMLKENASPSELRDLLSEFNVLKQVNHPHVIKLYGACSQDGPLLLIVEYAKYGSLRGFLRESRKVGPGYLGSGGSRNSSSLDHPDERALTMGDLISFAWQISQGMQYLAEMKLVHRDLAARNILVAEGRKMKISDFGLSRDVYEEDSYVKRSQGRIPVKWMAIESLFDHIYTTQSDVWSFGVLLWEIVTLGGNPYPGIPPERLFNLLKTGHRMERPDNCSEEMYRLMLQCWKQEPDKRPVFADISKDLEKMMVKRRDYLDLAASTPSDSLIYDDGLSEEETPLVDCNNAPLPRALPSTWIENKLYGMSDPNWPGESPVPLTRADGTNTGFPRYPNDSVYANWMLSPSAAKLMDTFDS

O=C(Cc1ccc(NC(=O)c2cccc(Cl)c2)cc1)NCc1ccccc1 [Compound 4e, N-(4-(2-(benzylamino)-2-oxoethyl)phenyl)-3-chlorobenzamide]
Mean Final Score (CSK): 1.9356 | Mean Kinase Statistic (CSK): -0.5346 | Mean Significance Score (CSK): 1.2107 | Mean Specificity Score (CSK): 0.7249 | effect on tubulin polymerization (purified bovine tubulin): did not affect the tubulin polymerization | Mean Final Score (Tyro3/Sky): 1.8204 | Mean Kinase Statistic (Tyro3/Sky): -0.5274 | Mean Significance Score (Tyro3/Sky): 1.2459 | Mean Specificity Score (Tyro3/Sky): 0.5745 | Mean Final Score (Ret): 2.3893 | Mean Kinase Statistic (Ret): -0.7112 | Mean Significance Score (Ret): 1.0953 | Mean Specificity Score (Ret): 1.2940
